Where “and” joins values, the source holds several entries; their conditions need not be identical. Equal values may be shown once. Inconclusive results and toxic doses are left out. How the source made its calls: active means survival T/C of 150% or more; inactive means T/C below 125% in these data.
Test system: P388 leukemia ip, CD2F1 mice, survival T/C
Experiment: NCI In Vivo Anticancer Drug Screen. Data for tumor model P388 Leukemia (intraperitoneal) in CD2F1 (CDF1) mice
Details: endpoint: median survival time, higher = longer survival
Summary of the method: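 Mice carrying the transplanted tumor received test compound or vehicle. Survival was recorded in each group, and the value is the treated-group measurement divided by that of the vehicle-treated control group.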

[1] = dose: 50.0 mg/kg/injection, schedule: Q01DX005 (ip), vehicle: saline with Tween-80
[2] = dose: 100.0 mg/kg/injection, schedule: Q01DX005 (ip), vehicle: saline with Tween-80
[3] = dose: 200.0 mg/kg/injection, schedule: Q01DX005 (ip), vehicle: saline with Tween-80
[4] = dose: 12.5 mg/kg/injection, schedule: Q01DX009 (ip), vehicle: water
[5] = dose: 25.0 mg/kg/injection, schedule: Q01DX009 (ip), vehicle: water
[6] = dose: 50.0 mg/kg/injection, schedule: Q01DX009 (ip), vehicle: saline with Tween-80
[7] = dose: 100.0 mg/kg/injection, schedule: Q01DX009 (ip), vehicle: saline with Tween-80
[8] = dose: 200.0 mg/kg/injection, schedule: Q01DX009 (ip), vehicle: saline with Tween-80
[9] = dose: 50.0 mg/kg/injection, schedule: Q01DX009 (ip), vehicle: water
[10] = dose: 60.0 mg/kg/injection, schedule: Q01DX005 (ip), vehicle: saline with Tween-80
[11] = dose: 120.0 mg/kg/injection, schedule: Q01DX005 (ip), vehicle: saline with Tween-80
[12] = dose: 240.0 mg/kg/injection, schedule: Q01DX005 (ip), vehicle: saline with Tween-80
[13] = dose: 50.0 mg/kg/injection, schedule: Q01DX009 (ip), vehicle: Klucel (hydroxypropylcellulose) (HPC)
[14] = dose: 100.0 mg/kg/injection, schedule: Q01DX009 (ip), vehicle: Klucel (hydroxypropylcellulose) (HPC)
[15] = dose: 200.0 mg/kg/injection, schedule: Q01DX009 (ip), vehicle: Klucel (hydroxypropylcellulose) (HPC)

Measured: T/C

COc1ccc2nc(N/N=C/c3cccc(C)n3)cc(C)c2c1
inactive: dose: 12.5 mg/kg/injection, schedule: Q01DX005 (ip), vehicle: saline with Tween-80 100 % of control | dose: 25.0 mg/kg/injection, schedule: Q01DX005 (ip), vehicle: saline with Tween-80 96 % of control | [1] 94 % of control and 95 % of control | [2] 114 % of control | [3] 116 % of control

O=C1C2CC=CCC2C(=O)N1CC[P+](c1ccccc1)(c1ccccc1)c1ccccc1 (stereo not given)
inactive: dose: 0.78 mg/kg/injection, schedule: Q01DX009 (ip), vehicle: water 100 % of control | dose: 1.56 mg/kg/injection, schedule: Q01DX009 (ip), vehicle: water 102 % of control and 95 % of control | dose: 3.13 mg/kg/injection, schedule: Q01DX009 (ip), vehicle: water 102 % of control and 106 % of control | dose: 6.25 mg/kg/injection, schedule: Q01DX009 (ip), vehicle: water 112 % of control | [4] 115 % of control and 116 % of control | [5] 115 % of control

CC(C)(CO)COC1OCN(C(C)(C)C)CC1(C)C (stereo not given)
inactive: [6] 100 % of control | [7] 110 % of control | [8] 112 % of control

C[CH2][Sn]([F])([CH2]C)[CH2]C
inactive: dose: 0.37 mg/kg/injection, schedule: Q01DX009 (ip), vehicle: saline with Tween-80 90 % of control | dose: 0.38 mg/kg/injection, schedule: Q01DX009 (ip), vehicle: Klucel (hydroxypropylcellulose) (HPC) 101 % of control and 96 % of control | dose: 0.75 mg/kg/injection, schedule: Q01DX009 (ip), vehicle: Klucel (hydroxypropylcellulose) (HPC) 104 % of control and 108 % of control and 96 % of control | dose: 0.75 mg/kg/injection, schedule: Q01DX009 (ip), vehicle: saline with Tween-80 105 % of control | dose: 1.5 mg/kg/injection, schedule: Q01DX009 (ip), vehicle: Klucel (hydroxypropylcellulose) (HPC) 102 % of control and 103 % of control and 114 % of control | dose: 1.5 mg/kg/injection, schedule: Q01DX009 (ip), vehicle: saline with Tween-80 100 % of control | dose: 3.0 mg/kg/injection, schedule: Q01DX009 (ip), vehicle: Klucel (hydroxypropylcellulose) (HPC) 109 % of control and 116 % of control

COc1ccc(C(O)c2ncccc2C)cc1OC (stereo not given)
inactive: [4] 102 % of control | [5] 94 % of control | [9] 99 % of control | dose: 100.0 mg/kg/injection, schedule: Q01DX009 (ip), vehicle: water 100 % of control | dose: 200.0 mg/kg/injection, schedule: Q01DX009 (ip), vehicle: water 101 % of control

CC(=O)Nc1ccc(C)cc1C1SCCS1
inactive: dose: 25.0 mg/kg/injection, schedule: Q01DX009 (ip), vehicle: saline with Tween-80 90 % of control | [6] 105 % of control | [7] 97 % of control

COC(=O)C1=C/C=C\CN(C(c2ccccc2)c2ccccc2)/C=C\1C(=O)OC
inactive: dose: 50.0 mg/kg/injection, schedule: Q01DX009 (ip), vehicle: suspension in saline 100 % of control | dose: 100.0 mg/kg/injection, schedule: Q01DX001 (ip), vehicle: saline 100 % of control | dose: 100.0 mg/kg/injection, schedule: Q01DX009 (ip), vehicle: suspension in saline 89 % of control | dose: 200.0 mg/kg/injection, schedule: Q01DX001 (ip), vehicle: saline 100 % of control | dose: 200.0 mg/kg/injection, schedule: Q01DX009 (ip), vehicle: suspension in saline 95 % of control | dose: 400.0 mg/kg/injection, schedule: Q01DX001 (ip), vehicle: saline 97 % of control | dose: 400.0 mg/kg/injection, schedule: Q01DX009 (ip), vehicle: suspension in saline 104 % of control

Cc1ccc2c(c1)-c1nc3nnnn3nc1C(C)(C)O2
inactive: [10] 92 % of control | [11] 95 % of control | [12] 98 % of control

CCCC1C/C=C/C=C/C=C/C=C/C(OC2OC(C)C(O)C(N)C2O)CC(O)C(C(=O)O)C(O)CC(=O)CC(O)CCCC(=O)CC(O)C(CC)C(=O)O1 (stereo not given)
inactive: dose: 2.5 mg/kg/injection, schedule: Q01DX009 (ip), vehicle: Klucel (hydroxypropylcellulose) (HPC) 94 % of control | dose: 5.0 mg/kg/injection, schedule: Q01DX009 (ip), vehicle: Klucel (hydroxypropylcellulose) (HPC) 106 % of control | dose: 10.0 mg/kg/injection, schedule: Q01DX009 (ip), vehicle: Klucel (hydroxypropylcellulose) (HPC) 92 % of control | dose: 20.0 mg/kg/injection, schedule: Q01DX009 (ip), vehicle: Klucel (hydroxypropylcellulose) (HPC) 87 % of control

CC(=O)Nn1cnc2c(SCc3ccccc3)ncnc21
inactive: [13] 100 % of control | [6] 100 % of control | [14] 100 % of control | [7] 95 % of control | dose: 100.0 mg/kg/injection, schedule: Q04DX003 (ip), vehicle: saline with Tween-80 95 % of control | [15] 100 % of control | [8] 122 % of control

CCN(CC)C(=S)N/N=C(\C)c1ccccn1
inactive: dose: 6.25 mg/kg/injection, schedule: Q01DX009 (ip), vehicle: saline with Tween-80 106 % of control | dose: 12.5 mg/kg/injection, schedule: Q01DX009 (ip), vehicle: saline with Tween-80 89 % of control

CCOC(=O)NC(NC(=O)OCC)c1ccccc1[N+](=O)[O-]
inactive: dose: 100.0 mg/kg/injection, schedule: Q04DX003 (ip), vehicle: saline 99 % of control | dose: 200.0 mg/kg/injection, schedule: Q04DX003 (ip), vehicle: saline 99 % of control | dose: 400.0 mg/kg/injection, schedule: Q04DX003 (ip), vehicle: saline 89 % of control

Cc1cc(Cc2ccc3c(c2)OCO3)ccc1OCC(=O)O
inactive: dose: 50.0 mg/kg/injection, schedule: Q01DX005 (ip), vehicle: Klucel (hydroxypropylcellulose) (HPC) 98 % of control | dose: 100.0 mg/kg/injection, schedule: Q01DX005 (ip), vehicle: Klucel (hydroxypropylcellulose) (HPC) 105 % of control | dose: 200.0 mg/kg/injection, schedule: Q01DX005 (ip), vehicle: Klucel (hydroxypropylcellulose) (HPC) 104 % of control

NC(=S)N/N=C1/C(=O)N(c2ccc(S(N)(=O)=O)cc2)C(=O)C1C(=O)Nc1ccc(S(N)(=O)=O)cc1 (stereo not given)
inactive: dose: 25.0 mg/kg/injection, schedule: Q04DX002 (ip), vehicle: saline with Tween-80 104 % of control | dose: 50.0 mg/kg/injection, schedule: Q04DX002 (ip), vehicle: saline with Tween-80 100 % of control | dose: 100.0 mg/kg/injection, schedule: Q04DX002 (ip), vehicle: saline with Tween-80 99 % of control and 100 % of control

COCCCNC(=O)c1nc2ccccc2c(=O)n1NC(=O)Cc1ccccc1
inactive: [1] 95 % of control | [2] 95 % of control | [3] 95 % of control

CC1C=Cc2ccccc2NC1C (stereo not given)
inactive: [10] 101 % of control | [11] 102 % of control | [12] 97 % of control

Cln1c2c(c3ccccc31)CN(Cc1ccccc1)CC2
inactive: [13] 105 % of control | [14] 106 % of control | [15] 97 % of control

CCC1C(=O)CC(c2ccc(OC)cc2)OC1c1ccc(OC)cc1 (stereo not given)
inactive: dose: 50.0 mg/kg/injection, schedule: Q01DX009 (ip), vehicle: saline 88 % of control | dose: 100.0 mg/kg/injection, schedule: Q01DX009 (ip), vehicle: saline 96 % of control | dose: 200.0 mg/kg/injection, schedule: Q01DX009 (ip), vehicle: saline 99 % of control

O=C1C=CC2(C=C1)OCC(=O)O2
inactive: [10] 100 % of control | [11] 97 % of control | [12] 96 % of control

CCN(CC)CCNc1cc(C)nc2c1ccc1c2ccc2c(NCCN(CC)CC)cc(C)nc21
inactive: [4] 104 % of control | [5] 113 % of control | [9] 97 % of control

O=C1CC2OC3C(C2O1)N(C(=O)OCc1ccccc1)C[C@H]3O (stereo not given in full)
inactive: dose: 60.0 mg/kg/injection, schedule: Q01DX005 (ip), vehicle: saline 106 % of control | dose: 120.0 mg/kg/injection, schedule: Q01DX005 (ip), vehicle: saline 98 % of control | dose: 240.0 mg/kg/injection, schedule: Q01DX005 (ip), vehicle: saline 105 % of control

CCCCNC(c1ccc(N(CC)CC)cc1)C(Br)(Br)Br (stereo not given)
inactive: dose: 50.0 mg/kg/injection, schedule: Q01DX005 (ip), vehicle: saline 114 % of control | dose: 100.0 mg/kg/injection, schedule: Q01DX005 (ip), vehicle: saline 101 % of control | dose: 200.0 mg/kg/injection, schedule: Q01DX005 (ip), vehicle: saline 107 % of control
